Assay results reported in patent US12077503B2, “Substituted cyclic amides and their use as herbicides” (FMC CORPORATION, priority 2015, dated 2024).

Key:
Type in all cases: in vivo
Kochia (Kochia scoparia) [1] = assay: Test A postemergence; conditions: Postemergence
Excerpt: (§1) Seeds of plant species selected from barnyardgrass (Echinochloa crus-galli), Kochia (Kochia scoparia), ragweed (common ragweed, Ambrosia elatior), ryegrass, Italian (Italian ryegrass, Lolium multiflorum), crabgrass, large (Digitaria sanguinalis), giant foxtail (Setaria faberii), green foxtail (Setaria viridis), morningglory (Ipomoea spp.), pigweed (Amaranthus retroflexus), velvetleaf (Abutilon theophrasti), wheat (Triticum aestivum), and corn (Zea mays) were planted into a blend of loam soil and sand and treated preemergence with a directed soil spray using test chemicals formulated in anon-phytotoxic solvent mixture which included a surfactant.
(§2) At the same time, plants selected from these crop and weed species and also blackgrass (Alopecurus myosuroides), and Galium (catchweed bedstraw, Galium aparine) were planted in pots containing the same blend of loam soil and sand and treated with postemergence applications of test chemicals formulated in the same manner. Plants ranged in height from 2 to 10 cm and were in the one- to two-leaf stage for the postemergence treatment. Treated plants and untreated controls were maintained in a greenhouse for approximately 10 d, after which time all treated plants were compared to untreated controls and visually evaluated for injury. Plant response ratings, summarized in Table A, are based on a 0 to 100 scale where 0 is no effect and 100 is complete control. A dash (-) response means no test result.

[2] = system: ragweed (common ragweed, Ambrosia elatior); assay: Test A postemergence; conditions: Postemergence
Excerpt: as §1, §2

[3] = system: giant foxtail (Setaria faberii); assay: Test A postemergence; conditions: Setaria faberi, post-emergence, 240 h, Postemergence
Excerpt: as §1, §2

[4] = system: ryegrass, Italian (Italian ryegrass, Lolium multiflorum); assay: Test A postemergence; conditions: Lolium multiflorum, post-emergence, 240 h, Postemergence
Excerpt: as §1, §2

[5] = system: wheat (Triticum aestivum); assay: Test A postemergence; conditions: Postemergence
Excerpt: as §1, §2

corn (Zea mays) = assay: Test A postemergence; conditions: Postemergence
Excerpt: as §1, §2

[6] = system: pigweed (Amaranthus retroflexus); assay: Test A postemergence; conditions: Postemergence
Excerpt: as §1, §2

[7] = system: blackgrass (Alopecurus myosuroides); assay: Test A postemergence; conditions: Postemergence
Excerpt: as §1, §2

[8] = system: Galium (catchweed bedstraw, Galium aparine); assay: Test A postemergence; conditions: Postemergence
Excerpt: as §1, §2

Kochia (Kochia scoparia) [9] = assay: Test A preemergence; conditions: Bassia scoparia, pre-emergence, 240 h
Excerpt: as §1, §2

[10] = system: ragweed (common ragweed, Ambrosia elatior); assay: Test A preemergence
Excerpt: as §1, §2

[11] = system: giant foxtail (Setaria faberii); assay: Test A preemergence
Excerpt: as §1, §2

[12] = system: ryegrass, Italian (Italian ryegrass, Lolium multiflorum); assay: Test A preemergence; conditions: Preemergence, 125 g ai/ha; 0 to 100 scale (0 no effect, 100 complete control)
Excerpt: as §1, §2

[13] = system: barnyardgrass (Echinochloa crus-galli); assay: Test A preemergence; conditions: Echinochloa crus-galli, pre-emergence, 240 h
Excerpt: as §1, §2

[14] = system: pigweed (Amaranthus retroflexus); assay: Test A preemergence
Excerpt: as §1, §2

[15] = system: ducksalad (Heteranthera limosa); assay: Test B flooded paddy test; conditions: 250 g ai/ha, Flood; 0 to 100 scale where 0 is no effect and 100 is complete control
Description: (§3) Plant species in the flooded paddy test selected from rice (Oryra sativa), sedge, umbrella (small-flower umbrella sedge, Cyperus difformis), ducksalad (Heteranthera limosa), and barnyardgrass (Echinochloa crus-galli) were grown to the 2-leaf stage for testing. At time of treatment, test pots were flooded to 3 cm above the soil surface, treated by application of test compounds directly to the paddy water, and then maintained at that water depth for the duration of the test. Treated plants and controls were maintained in a greenhouse for 13 to 15 d, after which time all species were compared to controls and visually evaluated. Plant response ratings, summarized in Table B, are based on a scale of 0 to 100 where 0 is no effect and 100 is complete control. A dash (-) response means no test result.

[16] = system: sedge, umbrella (small-flower umbrella sedge, Cyperus difformis); assay: Test B flooded paddy test; conditions: Cyperus difformis, 360 h, Flood, 250 g ai/ha; visually evaluated after 13 to 15 d; read-out: Plant response rating, Sedge, Umbrella (0 to 100 scale where 0 is no effect and 100 is complete control)
Description: as §3

[17] = system: barnyardgrass (Echinochloa crus-galli); assay: Test B flooded paddy test; conditions: 250 g ai/ha, Flood; 0 to 100 scale where 0 is no effect and 100 is complete control
Description: as §3

rice (Oryra sativa) = assay: Test B flooded paddy test; conditions: Oryza sativa, 250 g ai/ha, Flood; 0 to 100 scale where 0 is no effect and 100 is complete control; read-out: Rice plant response rating
Description: as §3

[18] = 125 g ai/ha, visual rating about 10 d after treatment
[19] = 500 g ai/ha, visual injury, 0 to 100 scale (0 no effect, 100 complete control), approx. 10 d
[20] = 500 g ai/ha, preemergence, 0 to 100 scale where 0 is no effect and 100 is complete control
[21] = Preemergence, 125 g ai/ha, 0 to 100 scale (0 no effect, 100 complete control)

In the case of `Cc1cc([C@H]2CN(C)C(=O)[C@@H]2C(=O)Nc2ccccc2[S+](C)[O-])ccc1F` (stereo partly drawn) [Compound 1313], the “Kochia plant response rating (0 to 100 scale)” value (Kochia (Kochia scoparia) [1]; [18]) is reported as 20, the pest or weed control at 500 g/ha (Kochia (Kochia scoparia) [1]; Bassia scoparia, post-emergence, 240 h, 500 g ai/ha, visual injury, 0 to 100 scale (0 no effect, 100 complete control), approx. 10 d, read-out: Plant response rating, Kochia) is reported as 50% and the pest or weed control at 125 g/ha ([2]; Ambrosia artemisiifolia, post-emergence, 240 h, 125 g ai/ha, visual rating about 10 d after treatment, read-out: Ragweed plant response rating (0 to 100 scale)) is reported as 0%. The “Plant response rating, Ragweed” value [2, 19] was 0, the pest or weed control at 125 g/ha ([3]; 125 g ai/ha, visual rating about 10 d after treatment, read-out: Foxtail, Giant plant response rating (0 to 100 scale)) was 90% and the pest or weed control at 500 g/ha ([3]; 500 g ai/ha, visual injury, 0 to 100 scale (0 no effect, 100 complete control), approx. 10 d, read-out: Plant response rating, Foxtail, Giant) was 90%. For the same molecule, the pest or weed control at 125 g/ha ([4]; 125 g ai/ha, visual rating about 10 d after treatment, read-out: Ryegrass, Italian plant response rating (0 to 100 scale)) was 0%, the pest or weed control at 500 g/ha ([4]; 500 g ai/ha, visual injury, 0 to 100 scale (0 no effect, 100 complete control), approx. 10 d, read-out: Plant response rating, Ryegrass, Italian) was 0% and the “Wheat plant response rating (0 to 100 scale)” value [5, 18] was 0. The “Plant response rating, Wheat” value [5, 19] was 0, the “Corn plant response rating (0 to 100 scale)” value (corn (Zea mays); [18]) was 0 and the “Plant response rating, Corn” value (corn (Zea mays); [19]) was 0. For the same molecule, the pest or weed control at 125 g/ha ([6]; Amaranthus retroflexus, post-emergence, 240 h, 125 g ai/ha, visual rating about 10 d after treatment, read-out: Pigweed plant response rating (0 to 100 scale)) was 0%, the “Plant response rating, Pigweed” value [6, 19] was 0 and the pest or weed control at 125 g/ha ([7]; Alopecurus myosuroides, post-emergence, 240 h, 125 g ai/ha, visual rating about 10 d after treatment, read-out: Blackgrass plant response rating (0 to 100 scale)) was 0%. For the same molecule, the “Plant response rating, Blackgrass” value [7, 19] was 0, the “Galium plant response rating (0 to 100 scale)” value [8, 18] was 0 and the pest or weed control at 500 g/ha ([8]; Galium, post-emergence, 240 h, 500 g ai/ha, visual injury, 0 to 100 scale (0 no effect, 100 complete control), approx. 10 d, read-out: Plant response rating, Galium) was 40%. The pest or weed control at 500 g/ha (Kochia (Kochia scoparia) [9]; 500 g ai/ha, preemergence, 0 to 100 scale where 0 is no effect and 100 is complete control, read-out: Kochia plant response rating) was 100%, the pest or weed control at 125 g/ha (Kochia (Kochia scoparia) [9]; Preemergence, 125 g ai/ha, 0 to 100 scale (0 no effect, 100 complete control), read-out: Plant response rating, Kochia) was 90% and the “Ragweed plant response rating” value [10, 20] was 0. The “Plant response rating, Ragweed” value [10, 21] was 0, the “Plant response rating, Foxtail, Giant” value [11, 21] was 20 and the pest or weed control at 500 g/ha ([11]; Setaria faberi, pre-emergence, 240 h, 500 g ai/ha, preemergence, 0 to 100 scale where 0 is no effect and 100 is complete control, read-out: Foxtail, Giant plant response rating) was 80%. The “Plant response rating, Ryegrass, Italian” value [12] was 0, the pest or weed control at 500 g/ha ([13]; 500 g ai/ha, preemergence, 0 to 100 scale where 0 is no effect and 100 is complete control, read-out: Barnyardgrass plant response rating) was 100% and the pest or weed control at 125 g/ha ([13]; Preemergence, 125 g ai/ha, 0 to 100 scale (0 no effect, 100 complete control), read-out: Plant response rating, Barnyardgrass) was 90%. The “Pigweed plant response rating” value [14, 20] was 0, the pest or weed control at 125 g/ha ([14]; Amaranthus retroflexus, pre-emergence, 240 h, Preemergence, 125 g ai/ha, 0 to 100 scale (0 no effect, 100 complete control), read-out: Plant response rating, Pigweed) was 0% and the “Ducksalad plant response rating” value [15] was 70. The pest or weed control at 250 g/ha [16] was 0%, the “Barnyardgrass plant response rating” value [17] was 25 and the pest or weed control at 250 g/ha (rice (Oryra sativa)) was 0%.
